Read-outs that look alike come from different tables or passages of the source.
Columns and labels:
[1] = tested on: Key Broadleaf Weed and Crop Species; experiment: Post-emergent Test II herbicidal activity (Table 15); assay type: in vivo; conditions: post-emergence, 336 h, 14 d; for pest or weed control at 35 g/ha: 35 g ai/ha; for pest or weed control at 70 g/ha: 70 g ai/ha; for pest or weed control at 140 g/ha: 140 g ai/ha
Summary of the method: (§1)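 Plants at first-second true leaf stage, grown 7-21 d in greenhouse (~15 h photoperiod, 23-29 °C day), were track-sprayed at 187 L/ha with compound in acetone/DMSO/water/isopropanol/crop oil/Triton X-155 at a high rate plus 1/2× to 1/16× dilutions. Injury scored visually after 14 d versus untreated plants, 0 (none) to 100% (complete kill).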

[2] = tested on: Key Grass and Sedge Weeds as well as Grass Crops; experiment: Post-emergent Test II herbicidal activity (Table 16); assay type: in vivo; conditions: post-emergence, 336 h, 14 d; for pest or weed control at 35 g/ha: 35 g ai/ha; for pest or weed control at 70 g/ha: 70 g ai/ha; for pest or weed control at 140 g/ha: 140 g ai/ha
Summary of the method: as §1

[3] = Abutilon theophrasti, velvetleaf (Abutilon theophrasti), read-out: Visual Growth Reduction (%) 14 Days After Application, ABUTH
[4] = Amaranthus retroflexus, redroot pigweed (Amaranthus retroflexus), read-out: Visual Growth Reduction (%) 14 Days After Application, AMARE
[5] = Brassica napus, oilseed rape, canola (Brassica napus), read-out: Visual Growth Reduction (%) 14 Days After Application, BRSNN
[6] = Chenopodium album, lambsquarters (Chenopodium album), read-out: Visual Growth Reduction (%) 14 Days After Application, CHEAL
[7] = Euphorbia heterophylla, wild poinsettia (Euphorbia heterophylla), read-out: Visual Growth Reduction (%) 14 Days After Application, EPHHL
[8] = Helianthus annuus, sunflower (Helianthus annuus), read-out: Visual Growth Reduction (%) 14 Days After Application, HELAN
[9] = Cyperus esculentus, yellow nutsedge (Cyperus esculentus), read-out: Visual Growth Reduction (%) 14 Days After Application, CYPES
[10] = Echinochloa crus-galli, barnyardgrass (Echinochloa crus-galli), read-out: Visual Growth Reduction (%) 14 Days After Application, ECHCG
[11] = Oryza sativa, rice (Oryza sativa), read-out: Visual Growth Reduction (%) 14 Days After Application, ORYSA
[12] = Setaria faberi, giant foxtail (Setaria faberi), read-out: Visual Growth Reduction (%) 14 Days After Application, SETFA
[13] = Triticum aestivum, wheat, spring (Triticum aestivum), read-out: Visual Growth Reduction (%) 14 Days After Application, TRZAS
[14] = Zea mays, maize, corn (Zea mays), read-out: Visual Growth Reduction (%) 14 Days After Application, ZEAMX

Work on COc1c(N)nc(-c2ccc3cc[nH]c3c2F)nc1C(=O)O [Compound 1.35] yielded a pest or weed control at 35 g/ha [1, 3] of 0 to 29%, a pest or weed control at 70 g/ha [1, 3] of 0 to 29% and a pest or weed control at 140 g/ha [1, 3] of 0 to 29%. It also gave a pest or weed control at 35 g/ha [1, 4] of 75 to 84%, a pest or weed control at 70 g/ha [1, 4] of 85 to 94% and a pest or weed control at 140 g/ha [1, 4] of 95 to 100%. The pest or weed control at 35 g/ha [1, 5] was 95 to 100%, the pest or weed control at 70 g/ha [1, 5] was 95 to 100% and the pest or weed control at 140 g/ha [1, 5] was 95 to 100%. The pest or weed control at 35 g/ha [1, 6] was 0 to 29%, the pest or weed control at 70 g/ha [1, 6] was 0 to 29% and the pest or weed control at 140 g/ha [1, 6] was 85 to 94%. The pest or weed control at 35 g/ha [1, 7] was 75 to 84%, the pest or weed control at 70 g/ha [1, 7] was 75 to 84% and the pest or weed control at 140 g/ha [1, 7] was 85 to 94%. It also gave a pest or weed control at 35 g/ha [1, 8] of 30 to 44%, a pest or weed control at 70 g/ha [1, 8] of 60 to 74% and a pest or weed control at 140 g/ha [1, 8] of 95 to 100%. For the same compound, the pest or weed control at 35 g/ha [2, 9] was 0 to 29%, the pest or weed control at 70 g/ha [2, 9] was 0 to 29% and the pest or weed control at 140 g/ha [2, 9] was 0 to 29%. For the same compound, the pest or weed control at 35 g/ha [2, 10] was 0 to 29%, the pest or weed control at 70 g/ha [2, 10] was 0 to 29% and the pest or weed control at 140 g/ha [2, 10] was 0 to 29%. For the same compound, the pest or weed control at 35 g/ha [2, 11] was 0 to 29%, the pest or weed control at 70 g/ha [2, 11] was 0 to 29% and the pest or weed control at 140 g/ha [2, 11] was 0 to 29%. The pest or weed control at 35 g/ha [2, 12] was 0 to 29%, the pest or weed control at 70 g/ha [2, 12] was 0 to 29% and the pest or weed control at 140 g/ha [2, 12] was 0 to 29%. It also gave a pest or weed control at 35 g/ha [2, 13] of 0 to 29%, a pest or weed control at 70 g/ha [2, 13] of 30 to 44% and a pest or weed control at 140 g/ha [2, 13] of 45 to 59%. The pest or weed control at 35 g/ha [2, 14] was 0 to 29%, the pest or weed control at 70 g/ha [2, 14] was 0 to 29% and the pest or weed control at 140 g/ha [2, 14] was 0 to 29%.

Reference: patent US20170050957A1, “4-AMINO-6-(HETEROCYCLIC)PICOLINATES AND 6-AMINO-2-(HETEROCYCLIC)PYRIMIDINE-4-CARBOXYLATES AND THEIR USE AS HERBICIDES” (Dow AgroSciences LLC, priority 2013, published 2017)
